Measurements: US8003655B2, “Substituted sulphoximines as TIE2 inhibitors and salts thereof, pharmaceutical compositions comprising same, methods of preparing same and uses of same” (Bayer Schering Pharma AG, priority 2006, dated 2011)

Assays:
Type in all cases: biochemical
CDK2/CycE = target: T1, CDK2/CycE (Homo sapiens, UniProt P24941); assay: CDK2 HTRF Assay (assay 4); details: 10 μM ATP, pIC50 = −log IC50 in molar concentration
T1 construct: GST; purchased ProQinase GmbH (Freiburg, Germany); host or cells: insect cells (Sf9)
From the text: CDK2/CycE-inhibitory activity of compounds of the present invention was quantified employing the CDK2/CycE HTRF assay as described in the following paragraphs.
Recombinant fusion proteins of GST and human CDK2 and of GST and human CycE, expressed in insect cells (Sf9) and purified by Glutathion-Sepharose affinity chromatography, were purchase from ProQinase GmbH (Freiburg, Germany). As substrate for the kinase reaction biotinylated peptide biotin-Ttds-YISPLKSPYKISEG (C-terminus in amid form) was used which can be purchased e.g. form the company JERINI peptide technologies (Berlin, Germany).
CDK2/CycE was incubated for 60 min at 22° C. in the presence of different concentrations of test compounds in 5 μl assay buffer [50 mM Tris/HCl pH 8.0, 10 mM MgCl2, 1.0 mM dithiothreitol, 0.1 mM sodium ortho-vanadate, 10 μM adenosine-tri-phosphate (ATP), 0.75 μM substrate, 0.01% (v/v) Nonidet-P40 (Sigma), 1% (v/v) dimethylsulfoxide]. The concentration of CDK2/CycE was adjusted depending of the activity of the enzyme lot and was chosen appropriate to have the assay in the linear range, typical concentrations were in the range of 1 ng/ml. The reaction was stopped by the addition of 5 μl of a solution of HTRF detection reagents (0.2 μM streptavidine-XLent and 3.4 nM Phospho-(Ser) CDKs Substrate Antibody [product #2324B, Cell Signalling Technology, Danvers, Mass., USA} and 4 nM Prot-A-EuK [Protein A labeled with Europium Cryptate from Cis biointernational, France, product no. 61PRAKLB]) in an aqueous EDTA-solution (100 mM EDTA, 800 mM KF, 0.2% (w/v) bovine serum albumin in 100 mM HEPES/NaOH pH 7.0).

Tie2 = target: T2, Tie2 (Homo sapiens, UniProt Q02763); assay: Tie2-Kinase HTRF-Assay without kinase preactivation (assay 2); details: 10 μM ATP, pIC50 = −log IC50 in molar concentration, read-out: Tie 2 activity (assay 2)
T2 construct: A recombinant fusion protein of GST and the intracellular domains of Tie2; GST; made in house; host or cells: insect cells (Hi-5)
T2 sequence (Q02763 770-1124 limits assumed): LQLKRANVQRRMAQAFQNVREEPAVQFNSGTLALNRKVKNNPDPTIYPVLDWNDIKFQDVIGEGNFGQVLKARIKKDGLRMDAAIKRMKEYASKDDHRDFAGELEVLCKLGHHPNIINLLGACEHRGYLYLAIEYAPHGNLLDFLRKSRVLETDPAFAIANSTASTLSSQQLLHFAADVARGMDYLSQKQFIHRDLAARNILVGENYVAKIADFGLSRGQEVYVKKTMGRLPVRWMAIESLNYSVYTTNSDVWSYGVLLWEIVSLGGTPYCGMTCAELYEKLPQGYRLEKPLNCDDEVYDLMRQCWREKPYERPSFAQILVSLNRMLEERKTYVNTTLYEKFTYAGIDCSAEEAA
From the text: Tie2-inhibitory activity of compounds of the present invention was quantified employing two Tie2 HTRF assay as described in the following paragraphs.
A recombinant fusion protein of GST and the intracellular domains of Tie2, expressed in insect cells (Hi-5) and purified by Glutathion-Sepharose affinity chromatography was used as kinase. Alternatively, commercially available GST-Tie2-fusion protein (Upstate Biotechnology, Dundee, Scotland) can be used as substrate for the kinase reaction the biotinylated peptide biotin-Ahx-EPKDDAYPLYSDFG (C-terminus in amid form) was used which can be purchased e.g. from the company Biosynthan GmbH (Berlin-Buch, Germany). Detection of phosphorylated product is achieved specifically by a trimeric detection complex consisting of the phosphorylated substrate, streptavidin-XLent (SA-XLent) which binds to biotin, and Europium Cryptate-labeled anti-phosphotyrosine antibody PT66 which binds to phosphorylated tyrosine.
Tie2 (3.5 ng/measurement point) was incubated for 60 min at 22° C. in the presence of 10 μM adenosine-tri-phosphate (ATP) and 1 μM substrate peptide (biotin-Ahx-EPKDDAYPLYSDFG-NH2) with different concentrations of test compounds (0 μM and concentrations in the range 0.001-20 μM) in 5 μl assay buffer [50 mM Hepes/NaOH pH 7, 10 mM MgCl2, 0.5 mM MnCl2, 1.0 mM dithiothreitol, 0.01% NP40, protease inhibitor mixture (“Complete w/o EDTA” from Roche, 1 tablet per 2.5 ml), 1% (v/v) dimethylsulfoxide]. The reaction was stopped by the addition of 5 μl of an aqueous buffer (25 mM Hepes/NaOH pH 7.5, 0.28% (w/v) bovine serum albumin) containing EDTA (90 mM) and the HTRF (Homogeneous Time Resolved Fluorescence) detection reagents streptavidine-XLent (0.2 μM, from Cis Biointernational, Marcoule, France) and PT66-Eu-Chelate (0.3 ng/μl; a europium-chelate labelled anti-phospho-tyrosine antibody from Perkin Elmer).
(§1) The resulting mixture was incubated 1 h at 22° C. to allow the binding of the biotinylated phosphorylated peptide to the streptavidine-XLent and the PT66-Eu-Chelate. Subsequently the amount of phosphorylated substrate peptide was evaluated by measurement of the resonance energy transfer from the PT66-Eu-Chelate to the streptavidine-XLent. Therefore, the fluorescence emissions at 620 nm and 665 nm after excitation at 350 nm was measured in a HTRF reader, e.g. a Rubystar (BMG Labtechnologies, Offenburg, Germany) or a Viewlux (Perkin-Elmer). The ratio of the emissions at 665 nm and at […] was taken as the measure for the amount of phosphorylated substrate peptide. The data were normalised (enzyme reaction without inhibitor=0% inhibition, all other assay components but no enzyme=100% inhibition) and IC50 values were calculated by a 4 parameter fit using an inhouse software.

preactivated Tie2 = target: T3, preactivated Tie2 (Homo sapiens, UniProt Q02763); assay: Tie2-Kinase HTRF-Assay with kinase preactivation (assay 3); details: 10 μM ATP, pIC50 = −log IC50 in molar concentration, read-out: Tie 2 activity (assay 3)
T3 construct: A recombinant fusion protein of GST and the intracellular domains of Tie2; GST; made in house; host or cells: insect cells (Hi-5)
T3 sequence (Q02763 770-1124 limits assumed): as above
Experimental: Assay 3: Tie2-Kinase HTRF-Assay with Kinase Preactivation
A recombinant fusion protein of GST and the intracellular domains of Tie2, expressed in insect cells (Hi-5) and purified by Glutathion-Sepharose affinity chromatography was used as kinase. As substrate for the kinase reaction the biotinylated peptide biotin-Ahx-EPKDDAYPLYSDFG (C-terminus in amid form) was used which can be purchased e.g. from the company Biosynthan GmbH (Berlin-Buch, Germany).
For activation, Tie2 was incubated at a conc. 12.5 ng/μl of for 20 min at 22° C. in the presence of 250 μM adenosine-tri-phosphate (ATP) in assay buffer [50 mM Hepes/NaOH pH 7, 10 mM MgCl2, 0.5 mM MnCl2, 1.0 mM dithiothreitol, 0.01% NP40, protease inhibitor mixture (“Complete w/o EDTA” from Roche, 1 tablet per 2.5 ml)].
For the subsequent kinase reaction, the preactivated Tie2 (0.5 ng/measurement point) was incubated for 20 min at 22° C. in the presence of 10 μM adenosine-tri-phosphate (ATP) and 1 μM substrate peptide (biotin-Ahx-EPKDDAYPLYSDFG-NH2) with different concentrations of test compounds (0 μM and concentrations in the range 0.001-20 μM) in 5 μl assay buffer [50 mM Hepes/NaOH pH 7, 10 mM MgCl2, 0.5 mM MnCl2, 0.1 mM sodium ortho-vanadate, 1.0 mM dithiothreitol, 0.01% NP40, protease inhibitor mixture (“Complete w/o EDTA” from Roche, 1 tablet per 2.5 ml), 1% (v/v) dimethylsulfoxide]. The reaction was stopped by the addition of 5 μl of an aqueous buffer (25 mM Hepes/NaOH pH 7.5, 0.28% (w/v) bovine serum albumin) containing EDTA (90 mM) and the HTRF (Homogeneous Time Resolved Fluorescence) detection reagents streptavidine-XLent (0.2 μM, from Cis Biointernational, Marcoule, France) and PT66-Eu-Chelate (0.3 ng/μl; a europium-chelate labelled anti-phospho-tyrosine antibody from Perkin Elmer).
as §1

SMILES | IC50 (CDK2/CycE) | IC50 (Tie2) | IC50 (preactivated Tie2)
CCOC(=O)N=S(C)(=O)c1ccc(Nc2ncc(-c3ccc(NC(=O)C4(c5ccccc5)CC4)cc3)c(N[C@H](C)CO)n2)cc1 (mixture of isomers) [Example 1, N-{4-[2-({4-[(RS)-N-(Ethoxycarbonyl)-S-methylsulfonimidoyl]phenyl}amino)-4-{[(R)-2-hydroxy-1-methylethyl]amino}-pyrimidin-5-yl]phenyl}-1-phenylcyclopropanecarboxamide] | > 10000 nM | 100 to 1000 nM | –
CCOC(=O)N=S(C)(=O)c1cccc(Nc2ncc(-c3ccc(NS(=O)(=O)c4cccc(Cl)c4Cl)cc3)c(N[C@H](C)CO)n2)c1 (mixture of isomers) [Example 2, 2,3-Dichloro-N-{4-[2-({3-[(RS)-N-(ethoxycarbonyl)-S-methylsulfonimidoyl]phenyl}amino)-4-{[(R)-2-hydroxy-1-methylethyl]amino}pyrimidin-5-yl]-phenyl}benzenesulfonamide] | > 10000 nM | 100 to 1000 nM | 100 to 1000 nM
CCOC(=O)N=S(C)(=O)c1ccc(Nc2ncc(-c3ccc(NC(=O)Nc4ccccc4)cc3)c(N[C@H](C)CO)n2)cc1 (mixture of isomers) [Example 6, 1-{4-[2-({4-[(RS)-N-(Ethoxycarbonyl)-S-methylsulfonimidoyl]phenyl}amino)-4-{[(R)-2-hydroxy-1-methylethyl]amino}-pyrimidin-5-yl]-phenyl}-3-[phenyl]urea] | > 10000 nM | 100 to 1000 nM | –
CCOC(=O)N=S(C)(=O)c1cccc(Nc2ncc(-c3ccc(NC(=O)Nc4cccc(C(F)(F)F)c4)cc3)c(N[C@H](C)CO)n2)c1 (mixture of isomers) [Example 10, 1-{4-[2-({3-[(RS)-N-(Ethoxycarbonyl)-S-methylsulfonimidoyl]phenyl}amino)-4-{[(R)-2-hydroxy-1-methylethyl]amino}-pyrimidin-5-yl]-phenyl}-3-[3-(trifluoromethyl)-phenyl]urea] | > 10000 nM | 100 to 1000 nM | –
CC(C)NC(=O)N=S(C)(=O)c1cccc(Nc2ncc(-c3ccc(NC(=O)Nc4cccc(C(F)(F)F)c4)cc3)c(N[C@H](C)CO)n2)c1 (mixture of isomers) [Example 14, 1-{4-[4-{[(R)-2-hydroxy-1-methylethyl]amino}-2-({3-[(RS)-N-(isopropylcarbamoyl) -S-methylsulfonimidoyl]phenyl}amino)-pyrimidin-5-yl]phenyl}-3-[3-(trifluoromethyl)-phenyl]urea] | > 10000 nM | 100 to 1000 nM | –
C[C@H](CO)Nc1nc(Nc2ccc(S(C)(=N)=O)cc2)ncc1-c1ccc(NS(=O)(=O)c2cccc(Cl)c2Cl)cc1 (mixture of isomers) [Example 24] | > 10000 nM | 100 to 1000 nM | –
C[C@H](CO)Nc1nc(Nc2cccc(S(C)(=N)=O)c2)ncc1-c1ccc(NC(=O)Nc2cccc(C(F)(F)F)c2)cc1 (mixture of isomers) [Example 39, 1-[4-(4-{[(R)-2-Hydroxy-1-methylethyl]amino}-2-{[3-(RS)-(S-methylsulfonimidoyl)phenyl]amino}-pyrimidin-5-yl)phenyl]-3-[3-(trifluoromethyl)-phenyl]urea] | > 10000 nM | < 100 nM | –
CCOC(=O)N=S(C)(=O)c1cccc(Nc2ncc(-c3ccc(NC(=O)Nc4cc(C(F)(F)F)ccc4F)c(F)c3)c(SC)n2)c1 (racemic) [Example 17, 1-{4-[2-({3-[(RS)-N-(Ethoxycarbonyl)-S-methylsulfonimidoyl]phenyl}amino)-4-(methylsulfanyl)pyrimidin-5-yl]-2-fluorophenyl}-3-[2-fluoro-5-(trifluoromethyl)phenyl]urea] | > 10000 nM | < 100 nM | –
CCOC(=O)N=S(C)(=O)c1cccc(Nc2ncc(-c3ccc(NC(=O)Nc4cc(C(F)(F)F)ccc4F)c(F)c3)c(NCCN3CCOCC3)n2)c1 (racemic) [Example 29, 1-{4-[2-({3-[(RS)-N-(Ethoxycarbonyl)-S-methylsulfonimidoyl]phenyl}amino)-4-{[2-(morpholin-4-yl)ethyl]amino}pyri-midin-5-yl]-2-fluorophenyl}-3-[2-fluoro-5-(trifluoromethyl)-phenyl]urea] | > 10000 nM | < 100 nM | –
CSc1nc(Nc2cccc(S(C)(=N)=O)c2)ncc1-c1ccc(NC(=O)Nc2cc(C(F)(F)F)ccc2F)c(F)c1 (racemic) [Example 44, 1-{2-Fluoro-4-[2-{[3-(RS)-(S-methylsulfonimidoyl)phenyl]amino}-4-(methylthio)-pyrimidin-5-yl]phenyl}-3-[2-fluoro-5-(trifluoromethyl)-phenyl]urea] | > 10000 nM | < 100 nM | –
CS(=N)(=O)c1cccc(Nc2ncc(-c3ccc(NC(=O)Nc4cc(C(F)(F)F)ccc4F)c(F)c3)c(NCCc3ccccc3)n2)c1 (racemic) [Example 48, 1-[2-Fluoro-4-(2-{[3-(RS)-(S-methylsulfonimidoyl)phenyl]amino}-4-[(2-phenylethyl)amino]-pyrimidin-5-yl)phenyl]-3-[2-fluoro-5-(trifluoromethyl)-phenyl]urea] | > 10000 nM | 100 to 1000 nM | –
